According to publication PMC8545353 (ACS chemical biology, 2021):
Values after ≈ are worked out from the molar mass of the structure shown. Non-standard residues stand in square brackets, D forms with d. Residues, ends and D or L forms follow the SMILES beside them. NMeY = CN[C@@H](Cc1ccc(O)cc1)C(=O)O; dNMeF = CN[C@H](Cc1ccccc1)C(=O)O; Sar = CNCC(=O)O

Assay: physchem
Settings: aqueous

## CC[C@H](C)[C@@H]1NC(=O)[C@H](Cc2ccc(O)cc2)N(C)C(=O)[C@H](Cc2ccccc2)NC(=O)CN(C)C(=O)[C@@H]2CCCN2C(=O)[C@@H](Cc2ccccc2)N(C)C(=O)[C@H](CC(C)C)NC1=O [Compound 1, cordyheptapeptide A] (cyclo(F[NMeY]IL[dNMeF]P[Sar]))
  solubility: 3.9 µM (≈ 3.43 µg/mL)
